Assays:
Assay type in all cases: cell-based
[1] = test system: GABAergic interneurons on pre-incubated human periventricular endothelial cells; assay: Interneuron migration over chemical-pre-treated periventricular endothelial cells; details: interneurons migrate 48 hours, vs control
Method: Migration assays with chemicals: To assess the roles of GABA or SDF-1/CXCL12 signaling on migration of human periventricular endothelial cells, 10^4 cells were seeded in one well insert and allowed to migrate in the presence of respective agonist or antagonist in periventricular endothelial cell medium (without GABA). After five days, cells were fixed, stained with anti-human CD31 antibody (Millipore), imaged and the distance migrated was calculated using ImageJ. To examine the effect of endothelial GABA or endothelial SDF-1/CXCL12 signaling on interneuron migration, human periventricular endothelial cells were seeded in 35 mm dish (10^5 cells/cm^2) and incubated with respective chemical for a period of 48 hours. 3×10^4 GABAergic interneurons were seeded on top of the periventricular endothelial cells using a one-well insert, and allowed to migrate over the pre-incubated periventricular endothelial cells for 2 days. Migration of neurons was assayed by staining with anti-human β-Tubulin antibody (Biolegend) and imaged. The concentration of chemicals used in the assays are as follows: muscimol (Sigma) 100 uM, BMI (Sigma) 100 uM, AMD3100 (Sigma) 50 μM, recombinant human SDF-1α (Peprotech) 40 nM. The chemicals were kept at −20° as concentrated stock solutions and diluted on the day of the experiment.

[2] = test system: human periventricular endothelial cells; assay: Long-distance migration assay of periventricular endothelial cells with chemicals; details: compared to control (no chemicals added), five days
Description: Long-distance migration assay: In preparation for migration assays, two-well silicone culture inserts (from ibidi GmbH, Cat #80209) were converted into one-well inserts by cutting with a sharp, sterile blade. Individual one-well inserts were placed in the middle of a 35 mm dish coated with Poly-Ornithine and Laminin. The boundary of the insert was marked on the back of each dish with a thin marker. For this assay, periventricular endothelial cells, control endothelial cells and endothelial cells derived without GABA and WNT7A were used at passage number P2 or P3, while GABA interneurons cultured for six weeks were used. 10^4 periventricular endothelial cells or endothelial cells derived without GABA and WNT7A were seeded in each insert in periventricular endothelial cell medium without GABA. Same number of GABAergic interneurons or control endothelial cells were seeded per insert in their respective manufacturer's recommended medium. The insert was removed after 48 hours and cells cultured for five days. After 5 days, cells were fixed and fluorescently labeled with an anti-human CD31 antibody (for endothelial cells) or an anti-human β-Tubulin antibody (for neurons) and DAPI. The distance between each cell body and the edge of the insert-boundary was measured using ImageJ.
Migration assays with chemicals: To assess the roles of GABA or SDF-1/CXCL12 signaling on migration of human periventricular endothelial cells, 10^4 cells were seeded in one well insert and allowed to migrate in the presence of respective agonist or antagonist in periventricular endothelial cell medium (without GABA). After five days, cells were fixed, stained with anti-human CD31 antibody (Millipore), imaged and the distance migrated was calculated using ImageJ. To examine the effect of endothelial GABA or endothelial SDF-1/CXCL12 signaling on interneuron migration, human periventricular endothelial cells were seeded in 35 mm dish (10^5 cells/cm^2) and incubated with respective chemical for a period of 48 hours. […]

[3] = test system: human periventricular endothelial cells; assay: Junction protein immunostaining in differentiating periventricular endothelial cells (effect of GABA / WNT7A)
Method: Endothelial cell differentiation and culture: H9 cells (WiCell, Madison, WI) were maintained in E8 media (Thermo Fisher Scientific) on Matrigel (BD Biosciences)-coated plates and passaged once a week with 0.5 mM EDTA (Thermo Fisher Scientific) in PBS. On day 0 of differentiation, H9 cells were dissociated with Accutase (Sigma), and plated at a density of 10^5 cells/cm^2 on Matrigel-coated plates. […] Rock inhibitor, Y-27632 (1004, Selleck Chemicals) was added for first 24 hours to improve cell survival. On day 2, cells were switched to vascular inducing medium composed of E6 medium (Thermo Fisher Scientific) containing BMP4 (50 ng/ml), SB431542 (5 μM, Cayman Chemicals), GABA (5 μM), WNT7A (500 ng/ml), FGF2 (100 ng/ml, Peprotech) and VEGF-A (50 ng/ml, Peprotech). On day 5, cells were split at 1:6 ratio using Accutase and plated on Matrigel-coated plates in periventricular endothelial cell (PVEC) medium consisting of E6 with VEGF-A (50 ng/ml), FGF2 (100 ng/ml) and GABA (5 μM). On day 7, periventricular endothelial cells were isolated from the mixed population by fluorescence-activated cell sorting (FACS) and seeded on Matrigel-coated plates in periventricular endothelial cells medium at a density of 6×10^5 cells/cm^2. For routine culturing, periventricular endothelial cells were dissociated using Accutase, and seeded on Matrigel-coated plates at a density of 6×10^5 cells/cm^2 (high density seeding) or 1.2×10^5 cells/cm^2 (low density seeding), with medium change every alternate day. Periventricular endothelial cells were cryopreserved after at least one passaging in freezing medium composed of 90% periventricular endothelial cells medium and 10% DMSO. As a source of neurons, we used human iPSC-derived GABAergic neurons from Cellular Dynamics (Madison, WI, Cat #R1013). As control for microarray analysis and for cell migration assays, we used human-iPSC derived endothelial cells from Cellular Dynamics (Madison WI, Cat #R1022), whose gene expression profile is similar to human aortic endothelial cells (HAECs; https://fujifilmedi.com/assets/CDI130925MIPTEC04.pdf). […]

[4] = endothelial cells treated 48 hours with 100 μM

c1cc(CN2CCCNCCNCCCNCC2)ccc1CN1CCCNCCNCCCNCC1 [AMD3100]
interneuron migration on pre-treated periventricular endothelial cells ([1]; endothelial cells treated 48 hours with 50 μM): No discernible effect on interneuron migration | periventricular endothelial cell migration ([2]; 50 μM): no significant effect on endothelial cell migration

C[N+]1(C)CCc2cc3c(cc2[C@H]1[C@@H]1OC(=O)c2c1ccc1c2OCO1)OCO3.[I-] [BMI, bicuculline methiodide]
interneuron migration on pre-treated periventricular endothelial cells [1, 4]: decreased migration | periventricular endothelial cell migration ([2]; 100 μM): significant decrease in cell migration

NCCCC(=O)O [GABA, gamma amino-butyric acid]
tight junction formation (Claudin5 and ZO-1 staining) ([3]; 5 uM GABA, in comparison to 50 μM or 100 μM): increases tight junction formation | localization of tight junction proteins Claudin 5 and ZO-1 ([3]; 50 uM or 100 μM GABA): disrupted the localization of tight junction proteins Claudin 5 and ZO-1 | expression of VE-Cadherin ([3]; increase in GABA levels (5, 50, 100 μM)): not affected by increase in GABA levels

NCc1cc(=O)[nH]o1 [muscimol]
interneuron migration on pre-treated periventricular endothelial cells [1, 4]: significantly higher migratory ability | periventricular endothelial cell migration ([2]; 100 μM): significant increase in the number of migrating cells

From patent US12564610B2, “Human periventricular endothelial cell therapy for neuropsychiatric disorders” (The McLean Hospital Corporation, priority 2019, dated 2026)
